IC50 and EC50 data for one molecule are collected here from patent US20080107625A1, “Inhibitors of Hepatitis C Virus” (Bristol-Myers Squibb Company, priority 2006, published 2008).

pEC50, pIC50: −log10 of the molar value. Where only a bound is given, the exact number is not on record here.

For experiment [1], the target named is T1, human liver cathepsin B (Homo sapiens, UniProt P07858).
T1 construct: purchased Sigma or EMDbiosciences; host or cells: human liver (as named)
Nature of the experiment: Specificity assay, cathepsin B. The format is biochemical. As to the method:
(§1) The specificities of compounds of the present disclosure were determined against a variety of serine proteases: human neutrophil elastase (HNE), porcine pancreatic elastase (PPE) and human pancreatic chymotrypsin and one cysteine protease: human liver cathepsin B. In all cases, a 96-well plate format protocol using colorimetric p-nitroaniline (pNA) substrate or fluorometric Amino-Methyl-Coumarin (AMC) substrate, specific for each enzyme was used as described previously (PCT Patent Application No. WO 00/09543) with some modifications. All enzymes were purchased from Sigma or EMDbiosciences while the substrates were from Bachem.
Each pNA assay included a 2 h enzyme-inhibitor pre-incubation at room temperature followed by addition of substrate and hydrolysis to ˜15% conversion as measured on a Spectramax Pro microplate reader. The cathepsin B assay was initiated by adding substrate to a 10 min enzyme-inhibitor pre-incubation at room temperature, and the assay plate measured immediately using the Cytofluor Series 4000. Compound concentrations varied from 100 to 0.4 μM depending on their potency. […]
(§2) The percentage of inhibition was calculated using the formula: [1−((UVinh−UVblank)/(UVctl−UVblank))]×100 […]

The test system of experiment [2] is HCV replicon in HUH-7 cells. Nature of the experiment: HCV replicon FRET assay. The format is cell-based, HCV strain 1b. As to conditions: Hepatitis C virus, 96 h, 4 days. From the text:
An HCV replicon whole cell system was established as described by Lohmann V, Korner F, Koch J, Herian U, Theilmann L, Bartenschlager R., Science 285(5424): 110-3 (1999). This system enabled us to evaluate the effects of our HCV Protease compounds on HCV RNA replication. Briefly, using the HCV strain 1b sequence described in the Lohmann paper (Assession number: AJ238799), an HCV cDNA was synthesized by Operon Technologies, Inc. (Alameda, Calif.), and the full-length replicon was then assembled in plasmid pGem9zf(+) (Promega, Madison, Wis.) using standard molecular biology techniques. […]
The HCV replicon FRET assay was developed to monitor the inhibitory effects of compounds described in the disclosure on HCV viral replication. […] After 4 days, cells were first assessed for cytotoxicity using alamar Blue (Trek Diagnostic Systems) for a CC50 reading. The toxicity of compound (CC50) was determined by adding 1/10th volume of alamar Blue to the media incubating the cells. After 4 hours, the fluorescence signal from each well was read, with an excitation wavelength at 530 nm and an emission wavelength of 580 nm, using the Cytofluor Series 4000 (Perspective Biosystems). […]

Experiment [3] concerns the target T2, porcine pancreatic elastase (PPE) (Sus scrofa, UniProt P00772).
T2 construct: purchased Sigma or EMDbiosciences
Nature of the experiment: Specificity assay, pancreatic elastase. It counts as biochemical. As to the method:
as §1
(§3) Each pNA assay included a 2 h enzyme-inhibitor pre-incubation at room temperature followed by addition of substrate and hydrolysis to ˜15% conversion as measured on a Spectramax Pro microplate reader. The cathepsin B assay was initiated by adding substrate to a 10 min enzyme-inhibitor pre-incubation at room temperature, and the assay plate measured immediately using the Cytofluor Series 4000. Compound concentrations varied from 100 to 0.4 μM depending on their potency.
(§4) 50 mM Tris(hydroxymethyl)aminomethane hydrochloride (Tris-HCl) pH 8, 0.5 M Sodium Sulfate (Na2SO4), 50 mM NaCl, 0.1 mM EDTA, 3% DMSO, 0.01% Tween-20 with: […]
as §2

Experiment [4] addresses T3, human pancreatic chymotrypsin (Homo sapiens, UniProt P17538).
T3 construct: purchased Sigma or EMDbiosciences
Put plainly: Specificity assay, chymotrypsin. It counts as biochemical. As to the method: as §1, §3, §4, §2

T2 sequence (P00772 27-266): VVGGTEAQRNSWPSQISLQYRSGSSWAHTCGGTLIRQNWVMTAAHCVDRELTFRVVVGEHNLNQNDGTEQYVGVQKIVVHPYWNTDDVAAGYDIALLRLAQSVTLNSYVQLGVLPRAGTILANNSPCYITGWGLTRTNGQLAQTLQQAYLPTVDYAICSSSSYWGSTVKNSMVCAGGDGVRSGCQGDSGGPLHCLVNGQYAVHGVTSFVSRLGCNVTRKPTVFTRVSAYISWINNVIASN
T3 sequence (P17538 19-263): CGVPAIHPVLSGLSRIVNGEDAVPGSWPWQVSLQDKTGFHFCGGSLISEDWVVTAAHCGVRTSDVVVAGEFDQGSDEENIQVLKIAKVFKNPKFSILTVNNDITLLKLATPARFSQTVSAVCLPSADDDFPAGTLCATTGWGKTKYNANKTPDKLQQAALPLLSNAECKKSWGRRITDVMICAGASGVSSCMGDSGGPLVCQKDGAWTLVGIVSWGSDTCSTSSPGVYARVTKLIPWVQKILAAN

With `CC(C)(C)OC(=O)N[C@H]1CN(C2CC2)CCC/C=C\C2C[C@@]2(C(=O)NS(=O)(=O)C2CC2)NC(=O)[C@@H]2C[C@@H](Oc3ccccn3)CN2C1=O` (stereo partly shown) [Compound 1], the pIC50 in experiment [1], in experiment [3] and in experiment [4] was less than 4.00 throughout. Also, in experiment [2], the pEC50 was 5.96.
